Data reported in US20070213359A1 (ACADIA Pharmaceuticals Inc., priority 2005, published 2007).
Where two headings read alike, the source gives them in different places.

Target: Ghrelin receptor (Homo sapiens, UniProt Q92847)
Experiment: Receptor Selection and Amplification Technology (R-SAT) assay
Format: cell-based
Design: expressed in transfected cells; host or cells: NIH3T3
Conditions: for IC50: negative logarithm of ligand concentration causing 50% inhibition of constitutive receptor response, transfected NIH3T3 cells, '—' not defined (nd used separately), read-out: RSAT pIC50 (converted); for Emax: read-out: RSAT Eff(%)
[1] = percent inhibition at saturating ligand, normalized to reference ligand Substance P analog = 100%

Chain of Ghrelin receptor (Q92847 whole entry): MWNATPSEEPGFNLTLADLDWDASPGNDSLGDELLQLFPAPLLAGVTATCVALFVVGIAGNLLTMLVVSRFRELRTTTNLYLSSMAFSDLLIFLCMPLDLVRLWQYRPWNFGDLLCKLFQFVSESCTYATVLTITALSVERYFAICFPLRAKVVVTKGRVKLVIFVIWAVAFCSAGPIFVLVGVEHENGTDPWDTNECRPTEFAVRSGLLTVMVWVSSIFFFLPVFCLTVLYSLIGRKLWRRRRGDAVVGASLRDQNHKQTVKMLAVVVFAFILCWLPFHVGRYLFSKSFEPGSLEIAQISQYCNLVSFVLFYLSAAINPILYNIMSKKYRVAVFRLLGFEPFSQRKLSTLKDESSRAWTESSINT

Structure (SMILES): CC(=O)c1cn(CCCN2CCCN(Cc3ccccc3Cl)CC2)c2c(C)cccc12
- IC50: 1.26 nM
- Emax [1]: 111%

Structure (SMILES): COc1cccc2c(C(C)=O)cn(CC(C)CN3C4CCC3CC(CCc3ccccc3)C4)c12 (centres unmarked)
- IC50: 50.1 nM
- Emax: 120%

Structure (SMILES): COc1cccc2c(C(=O)NCC(C)C)cn(CCCN3CCN(CCOc4ccc(Cl)cc4)CC3)c12
- IC50: 63.1 nM
- RSAT Eff(%) [1]: 84%

Structure (SMILES): CC(=O)c1cn(CCCN2CCN(c3ncc(C(F)(F)F)cc3Cl)CC2)c2ncccc12
- IC50: 63.1 nM
- Emax [1]: 91%

Structure (SMILES): CC(=O)c1cn(CCCN2CCN(c3ncc(C(F)(F)F)cc3Cl)CC2)c2c(C#N)cccc12
- IC50: 79.4 nM
- Emax [1]: 106%

Structure (SMILES): COc1cccc2c(C(=O)NCC(C)C)cn(CCCN3C4CCC3CC(Oc3ccc(F)cc3)C4)c12 (centres unmarked)
- IC50: 79.4 nM
- RSAT Eff(%) [1]: 147%

Structure (SMILES): CC(=O)c1cn(CCCN2C3CCC2CC(CCc2ccc(Cl)cc2)C3)c2c(C)cccc12 (centres unmarked)
- IC50: 100 nM
- Emax: 50%

Structure (SMILES): CC(=O)c1cn(CCCNCCOc2ccccc2)c2c(Cl)cccc12
- IC50: 100 nM
- Emax [1]: 84%

Structure (SMILES): CC(=O)c1cn(CCCN2C3CCC2CC(Oc2ccc(F)cc2)C3)c2c(Cl)cccc12 (centres unmarked)
- IC50: 100 nM
- Emax [1]: 87%

Structure (SMILES): CCc1cccc2c(C(C)=O)cn(CCCN3C4CCC3CC(Oc3ccccc3Cl)C4)c12 (centres unmarked)
- IC50: 100 nM
- Emax [1]: 101%

Structure (SMILES): O=C(c1cn(CCCN2CCCN(Cc3ccc(F)cc3)CC2)c2ncccc12)C(F)(F)F
- IC50: 100 nM
- Emax [1]: 83%

Structure (SMILES): CCCCC(=O)c1cn(CCCN2CCC(Oc3ccc(F)cc3)CC2)c2ccc(OC)cc12
- IC50: 100 nM
- Emax: 91%

Structure (SMILES): CCCOC1CCN(CCCn2cc(C(=O)CC(C)C)c3ccccc32)CC1
- IC50: 126 nM
- Emax [1]: 81%

Structure (SMILES): CCCCC(=O)c1cn(CCCN2C3CCC2CC(Oc2ccc(Cl)cc2)C3)c2ccc(OC)cc12 (centres unmarked)
- IC50: 126 nM
- Emax [1]: 110%

Structure (SMILES): COc1cccc2c(C(C)=O)cn(CCCN3CCC(O)(Cc4ccccc4)CC3)c12
- IC50: 126 nM
- Emax [1]: 106%

Structure (SMILES): CCCCC(=O)c1cn(CCCN2CCC(OCCC)CC2)c2ccc(OC)cc12
- IC50: 126 nM
- Emax [1]: 114%

Structure (SMILES): O=C(c1cn(CCCN2CCN(Cc3ccc(Cl)cc3Cl)CC2)c2ncccc12)C(F)(F)F
- IC50: 126 nM
- Emax [1]: 78%

Structure (SMILES): CCCCC(=O)c1cn(CCCN2CCC3c4cc(OC)ccc4NC3C2)c2ccc(OC)cc12 (centres unmarked)
- IC50: 126 nM
- Emax [1]: 91%

Structure (SMILES): COc1cccc2c(C(=O)NCC(C)C)cn(CCCN3CCC(c4nc(-c5ccncc5)no4)CC3)c12
- IC50: 158 nM
- RSAT Eff(%) [1]: 93%

Structure (SMILES): CCc1cccc2c(C(C)=O)cn(CCCN3CCN(c4ncc(C(F)(F)F)cc4Cl)CC3)c12
- IC50: 158 nM
- Emax [1]: 90%

Structure (SMILES): COc1ccc2c(C(C)=O)cn(CCCN3CCC(Oc4ccc(F)cc4)CC3)c2c1
- IC50: 158 nM
- Emax [1]: 70%

Structure (SMILES): CCCCC(=O)c1cn(CCCN2CCC(CCCC)CC2)c2ccc(OC)cc12
- IC50: 158 nM
- Emax [1]: 104%

Structure (SMILES): CCC(=O)c1cn(CCCN2CCC(c3nc4ccccc4s3)CC2)c2ccccc12
- IC50: 158 nM
- Emax [1]: 104%

Structure (SMILES): COc1cccc2c(C(C)=O)cn(CC(C)CN3CCN(c4ncc(C(F)(F)F)cc4Cl)CC3)c12 (centres unmarked)
- IC50: 158 nM
- Emax [1]: 95%

Structure (SMILES): CCc1cccc2c(C(C)=O)cn(CCCNC3Cc4ccccc4C3)c12
- IC50: 158 nM
- Emax [1]: 98%

Structure (SMILES): CC(C)CC(=O)c1cn(CCCN2C3CCC2CC(OC2=CC=C(Cl)CC2)C3)c2ccccc12 (centres unmarked)
- IC50: 158 nM
- Emax: 137%

Structure (SMILES): CC(=O)c1cn(CCCN2CCN(Cc3ccc(Cl)cc3Cl)CC2)c2c(C)cccc12
- IC50: 158 nM
- Emax [1]: 120%

Structure (SMILES): CC(=O)c1cn(CCCN2CCC(Oc3ccc(F)cc3)CC2)c2ccc(Br)cc12
- IC50: 158 nM
- Emax [1]: 75%

Structure (SMILES): CC(C)CC(=O)c1cn(CCCN2C3CCC2CC(OCC2CC2)C3)c2ccccc12 (centres unmarked)
- IC50: 158 nM
- Emax [1]: 129%

Structure (SMILES): COc1ccc2c(C(C)=O)cn(CCCN3C4CCC3CC(OCC3CC3)C4)c2c1 (centres unmarked)
- IC50: 158 nM
- Emax [1]: 93%

Structure (SMILES): COc1cccc2c(C(C)=O)cn(CCCN3CCN(C(C)c4ccccc4)CC3)c12 (centres unmarked)
- IC50: 158 nM
- Emax [1]: 114%

Structure (SMILES): COc1cccc2c(C(C)=O)cn(CC(C)CN3CCN(Cc4ccc(Cl)cc4Cl)CC3)c12 (centres unmarked)
- IC50: 200 nM
- Emax [1]: 78%

Structure (SMILES): CC(=O)c1cn(CCCN2CCC(c3nc(-c4cccnc4)no3)CC2)c2c(C)cccc12
- IC50: 200 nM
- Emax [1]: 103%

Structure (SMILES): CC(=O)c1cn(CC(O)CN2CCC(c3nc4ccccc4s3)CC2)c2ccccc12 (centres unmarked)
- IC50: 200 nM
- Emax [1]: 58%

Structure (SMILES): CC(=O)c1cn(CCCN2CCN(CCOc3ccccc3)CC2)c2c(Cl)cccc12
- IC50: 200 nM
- Emax [1]: 91%

Structure (SMILES): CCCCC(=O)c1cn(CCCN2C3CCC2CC(OCC2CC2)C3)c2ccc(OC)cc12 (centres unmarked)
- IC50: 200 nM
- Emax: 132%

Structure (SMILES): CCc1cccc2c(C(C)=O)cn(CCCN3C4CCC3CC(Oc3ccc(F)cc3)C4)c12 (centres unmarked)
- IC50: 200 nM
- Emax [1]: 98%

Structure (SMILES): CC(=O)c1cn(CC(O)CN2CCC(Oc3ccc(F)cc3)CC2)c2ccccc12 (centres unmarked)
- IC50: 200 nM
- Emax [1]: 74%

Structure (SMILES): COc1ccc2c(C(C)=O)cn(CCCN3CCC(Oc4ccccc4Cl)CC3)c2c1
- IC50: 251 nM
- Emax [1]: 88%

Structure (SMILES): CC(=O)c1cn(CCN2C3CCC2CC(OCC2CC2)C3)c2ccccc12 (centres unmarked)
- IC50: 251 nM
- Emax [1]: 54%

Structure (SMILES): CC(=O)c1cn(CCCN2CCN(C(C)c3ccccc3)CC2)c2cc(Br)ccc12 (centres unmarked)
- IC50: 251 nM
- Emax [1]: 93%

Structure (SMILES): CC(=O)c1cn(CCCN2C3CCC2CC(OCC2CC2)C3)c2ccc(Br)cc12 (centres unmarked)
- IC50: 251 nM
- Emax [1]: 102%

Structure (SMILES): CCCON1CCN(CCCn2cc(C(=O)C(F)(F)F)c3ccccc32)CC1
- IC50: 251 nM
- Emax [1]: 99%

Structure (SMILES): CCc1cccc2c(C(C)=O)cn(CCCN3CCN(Cc4ccc(Cl)cc4Cl)CC3)c12
- IC50: 251 nM
- Emax [1]: 106%

Structure (SMILES): CC(=O)c1cn(CCCN2CCC(Oc3ccccc3Cl)CC2)c2c(Cl)cccc12
- IC50: 251 nM
- Emax [1]: 97%

Structure (SMILES): CCCCC[C@H]1C[C@H]2CC[C@@H](C1)N2CCCn1cc(C(C)=O)c2cccc(C)c21
- IC50: 251 nM
- Emax [1]: 105%

Structure (SMILES): CC(c1ccccc1)N1CCN(CCCn2cc(C(=O)C(F)(F)F)c3ccccc32)CC1 (centres unmarked)
- IC50: 251 nM
- Emax [1]: 92%

Structure (SMILES): O=C(c1cn(CCCN2C3CCC2CC(Oc2ccc(Cl)cc2)C3)c2ccccc12)C(F)(F)F (centres unmarked)
- IC50: 251 nM
- Emax [1]: 97%

Structure (SMILES): CCCCC(=O)c1cn(CCCN2CCC(Oc3ccccc3Cl)CC2)c2ccc(OC)cc12
- IC50: 251 nM
- Emax [1]: 92%

Structure (SMILES): CCCOC1CCN(CCCn2cc(C(C)=O)c3ccc(Br)cc32)CC1
- IC50: 251 nM
- Emax [1]: 107%

Structure (SMILES): CC(=O)c1cn(CCCN2CCC(c3nc(-c4ccncc4)no3)CC2)c2c(Cl)cccc12
- IC50: 251 nM
- Emax [1]: 108%

Structure (SMILES): CC(=O)c1cn(CCCN2CCCN(CCc3ccccc3)CC2)c2ncccc12
- IC50: 251 nM
- Emax [1]: 84%

Structure (SMILES): CCC(=O)c1cn(CCCN2CCC(c3ccccc3OC)CC2)c2ccccc12
- IC50: 316 nM
- Emax [1]: 59%

Structure (SMILES): CC(=O)c1cn(CCCN2CCC3(CC2)CC(=O)c2ccccc2O3)c2c(C)cccc12
- IC50: 316 nM
- Emax [1]: 71%

Structure (SMILES): COc1cccc2c(C(C)=O)cn(CCCN3CCC4(CC3)C(=O)NCN4c3ccccc3)c12
- IC50: 316 nM
- Emax: 38%

Structure (SMILES): CC(C)CC(=O)c1cn(CCCN2CCC(Oc3ccc(Cl)cc3)CC2)c2ccccc12
- IC50: 316 nM
- Emax [1]: 112%

Structure (SMILES): CCCCC(=O)c1cn(CCCN2CCC(c3ccccc3OC)CC2)c2ccc(OC)cc12
- IC50: 316 nM
- Emax [1]: 101%

Structure (SMILES): CCC(=O)c1cn(CCCN2CCC(Oc3ccccc3Cl)CC2)c2ccccc12
- IC50: 316 nM
- Emax [1]: 76%
